Measured values as given in PubChem BioAssay AID1918957 (Molecular Pharmacology Branch, DTP, NCI, 2023).
Where “and” joins values, the source holds several entries; their conditions need not be identical. Identical values can stand only once.

System: NCI-H1876 complex spheroid viability
Experiment: Anticancer human tumor NCI-H1876 cell line growth inhibition [LSD1];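 further: spheroids exposed to compounds for one week before readout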;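 on viability, T/C: 100% = DMSO vehicle-treated spheroids so lower means fewer viable cells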
Conditions: for viability, T/C: stronger effect = lower value
Method in brief: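 Complex spheroids of tumor cells with HUVEC and human MSCs, exposed to iadademstat combined with other agents. Each agent tested in half-log steps from near clinical Cmax (else 10 microM top), DMSO ≤0.25%.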

[1] = curve of first compound, second compound 0.1 µM
[2] = curve of first compound, second compound 0.316 µM
[3] = curve of first compound, second compound 1 µM
[4] = curve of first compound, second compound 3.16 µM
[5] = curve of first compound, second compound 10 µM
[6] = second compound 0.1 µM, first compound 0.00949 µM
[7] = second compound 0.1 µM, first compound 0.03 µM
[8] = second compound 0.1 µM, first compound 0.0949 µM
[9] = second compound 0.1 µM, first compound 0.3 µM
[10] = second compound 0.316 µM, first compound 0.00949 µM
[11] = second compound 0.316 µM, first compound 0.03 µM
[12] = second compound 0.316 µM, first compound 0.0949 µM
[13] = second compound 0.316 µM, first compound 0.3 µM
[14] = second compound 1 µM, first compound 0.00949 µM
[15] = second compound 1 µM, first compound 0.03 µM
[16] = second compound 1 µM, first compound 0.0949 µM
[17] = second compound 1 µM, first compound 0.3 µM
[18] = second compound 3.16 µM, first compound 0.00949 µM
[19] = second compound 3.16 µM, first compound 0.03 µM
[20] = second compound 3.16 µM, first compound 0.0949 µM
[21] = second compound 3.16 µM, first compound 0.3 µM
[22] = second compound 10 µM, first compound 0.00949 µM
[23] = second compound 10 µM, first compound 0.03 µM
[24] = second compound 10 µM, first compound 0.0949 µM
[25] = second compound 10 µM, first compound 0.3 µM
[26] = second compound 0.1 µM, first compound 0.0316 µM
[27] = second compound 0.1 µM, first compound 0.1 µM
[28] = second compound 0.1 µM, first compound 0.316 µM
[29] = second compound 0.1 µM, first compound 1 µM
[30] = second compound 0.1 µM, first compound 3.16 µM
[31] = second compound 0.1 µM, first compound 10 µM
[32] = second compound 0.316 µM, first compound 0.0316 µM
[33] = second compound 0.316 µM, first compound 0.1 µM
[34] = second compound 0.316 µM, first compound 0.316 µM
[35] = second compound 0.316 µM, first compound 1 µM
[36] = second compound 0.316 µM, first compound 3.16 µM
[37] = second compound 0.316 µM, first compound 10 µM
[38] = second compound 1 µM, first compound 0.0316 µM
[39] = second compound 1 µM, first compound 0.1 µM
[40] = second compound 1 µM, first compound 0.316 µM
[41] = second compound 1 µM, first compound 1 µM
[42] = second compound 1 µM, first compound 3.16 µM
[43] = second compound 1 µM, first compound 10 µM
[44] = second compound 3.16 µM, first compound 0.0316 µM
[45] = second compound 3.16 µM, first compound 0.1 µM
[46] = second compound 3.16 µM, first compound 0.316 µM
[47] = second compound 3.16 µM, first compound 1 µM
[48] = second compound 3.16 µM, first compound 3.16 µM
[49] = second compound 3.16 µM, first compound 10 µM
[50] = second compound 10 µM, first compound 0.0316 µM
[51] = second compound 10 µM, first compound 0.1 µM
[52] = second compound 10 µM, first compound 0.316 µM
[53] = second compound 10 µM, first compound 1 µM
[54] = second compound 10 µM, first compound 3.16 µM
[55] = second compound 10 µM, first compound 10 µM

Nc1ccccc1NC(=O)c1ccc(CNC(=O)OCc2cccnc2)cc1 + NC1CC1c1ccc(-c2cccc(O)c2)cc1
IC50 [1]: 81 nM
IC50 [2]: 66.8 nM
IC50 [3]: 61.5 nM
IC50 [4]: 65.2 nM
IC50 [5]: 68.2 nM
viability, T/C [6]: 91.1%
viability, T/C [7]: 88.8%
viability, T/C [8]: 43.1%
viability, T/C [9]: 9.94%
viability, T/C (second compound 0.1 µM, first compound 0.949 µM): 2.94%
viability, T/C (second compound 0.1 µM, first compound 3 µM): 0.49%
viability, T/C [10]: 83.6%
viability, T/C [11]: 71.9%
viability, T/C [12]: 40.9%
viability, T/C [13]: 9.16%
viability, T/C (second compound 0.316 µM, first compound 0.949 µM): 3.03%
viability, T/C (second compound 0.316 µM, first compound 3 µM): 0.41%
viability, T/C [14]: 85.1%
viability, T/C [15]: 75.5%
viability, T/C [16]: 34.4%
viability, T/C [17]: 8.61%
viability, T/C (second compound 1 µM, first compound 0.949 µM): 2.73%
viability, T/C (second compound 1 µM, first compound 3 µM): 0.38%
viability, T/C [18]: 84.6%
viability, T/C [19]: 76%
viability, T/C [20]: 37.3%
viability, T/C [21]: 8.61%
viability, T/C (second compound 3.16 µM, first compound 0.949 µM): 2.69%
viability, T/C (second compound 3.16 µM, first compound 3 µM): 0.45%
viability, T/C [22]: 78.6%
viability, T/C [23]: 70.5%
viability, T/C [24]: 41.5%
viability, T/C [25]: 13.3%
viability, T/C (second compound 10 µM, first compound 0.949 µM): 2.64%
viability, T/C (second compound 10 µM, first compound 3 µM): 0.52%

O=C(c1cc(Cc2n[nH]c(=O)c3ccccc23)ccc1F)N1CCN(C(=O)C2CC2)CC1 + NC1CC1c1ccc(-c2cccc(O)c2)cc1
IC50 [1]: 6190 nM
IC50 [2]: 6210 nM
IC50 [3]: 6350 nM
IC50 [4]: 6410 nM
IC50 [5]: 6490 nM
viability, T/C [26]: 101%
viability, T/C [27]: 99.9%
viability, T/C [28]: 98.2%
viability, T/C [29]: 90.3%
viability, T/C [30]: 68.3%
viability, T/C [31]: 36.9%
viability, T/C [32]: 103%
viability, T/C [33]: 94.9%
viability, T/C [34]: 97.7%
viability, T/C [35]: 88.3%
viability, T/C [36]: 66.8%
viability, T/C [37]: 38%
viability, T/C [38]: 106%
viability, T/C [39]: 99.5%
viability, T/C [40]: 98.3%
viability, T/C [41]: 88.2%
viability, T/C [42]: 70.2%
viability, T/C [43]: 36.7%
viability, T/C [44]: 102%
viability, T/C [45]: 96.9%
viability, T/C [46]: 101%
viability, T/C [47]: 88.4%
viability, T/C [48]: 72%
viability, T/C [49]: 36.3%
viability, T/C [50]: 99.5%
viability, T/C [51]: 94.1%
viability, T/C [52]: 93.2%
viability, T/C [53]: 82%
viability, T/C [54]: 69.7%
viability, T/C [55]: 38.6%

CCc1c2c(nc3ccc(O)cc13)-c1cc3c(c(=O)n1C2)COC(=O)[C@]3(O)CC + NC1CC1c1ccc(-c2cccc(O)c2)cc1
IC50 [1]: < 0.949 nM
IC50 [2]: < 0.949 nM
IC50 [3]: < 0.949 nM
IC50 [4]: < 0.949 nM
IC50 [5]: < 0.949 nM
viability, T/C (second compound 0.1 µM, first compound 0.000949 µM): 5.07%
viability, T/C (second compound 0.1 µM, first compound 0.003 µM): 3.61%
viability, T/C [6]: 1.59%
viability, T/C [7]: 0.3%
viability, T/C [8]: 0.22%
viability, T/C [9]: 0.31%
viability, T/C (second compound 0.316 µM, first compound 0.000949 µM): 5.4%
viability, T/C (second compound 0.316 µM, first compound 0.003 µM): 3.71%
viability, T/C [10]: 1.52%
viability, T/C [11]: 0.19%
viability, T/C [12]: 0.15%
viability, T/C [13]: 0.25%
viability, T/C (second compound 1 µM, first compound 0.000949 µM): 5.18%
viability, T/C (second compound 1 µM, first compound 0.003 µM): 3.15%
viability, T/C [14]: 1.5%
viability, T/C [15]: 0.39%
viability, T/C [16]: 0.6%
viability, T/C [17]: 0.3%
viability, T/C (second compound 3.16 µM, first compound 0.000949 µM): 5.73%
viability, T/C (second compound 3.16 µM, first compound 0.003 µM): 3.61%
viability, T/C [18]: 1.99%
viability, T/C [19]: 0.43%
viability, T/C [20]: 0.32%
viability, T/C [21]: 0.32%
viability, T/C (second compound 10 µM, first compound 0.000949 µM): 6.65%
viability, T/C (second compound 10 µM, first compound 0.003 µM): 4.79%
viability, T/C [22]: 3.56%
viability, T/C [23]: 0.81%
viability, T/C [24]: 0.56%
viability, T/C [25]: 0.86%

CC(C)c1c(-c2ccccc2)nc2c(C#N)c[nH]n2c1=O + NC1CCC(NC2CC2c2ccccc2)CC1
IC50 [1]: 7010 nM
IC50 [2]: 7170 nM
IC50 [3]: 6830 nM
IC50 [4]: 6120 nM
IC50 [5]: 6210 nM
viability, T/C [26]: 100%
viability, T/C [27]: 97.1%
viability, T/C [28]: 109%
viability, T/C [29]: 97%
viability, T/C [30]: 94.2%
viability, T/C [31]: 30.1%
viability, T/C [32]: 90.2%
viability, T/C [33]: 106%
viability, T/C [34]: 103%
viability, T/C [35]: 88.9%
viability, T/C [36]: 93.1%
viability, T/C [37]: 32.4%
viability, T/C [38]: 97.1%
viability, T/C [39]: 101%
viability, T/C [40]: 99.8%
viability, T/C [41]: 95.1%
viability, T/C [42]: 89.7%
viability, T/C [43]: 30.7%
viability, T/C [44]: 99%
viability, T/C [45]: 106%
viability, T/C [46]: 102%
viability, T/C [47]: 92%
viability, T/C [48]: 88.2%
viability, T/C [49]: 22.5%
viability, T/C [50]: 89.4%
viability, T/C [51]: 93.6%
viability, T/C [52]: 92.6%
viability, T/C [53]: 99.3%
viability, T/C [54]: 90.5%
viability, T/C [55]: 21.3%

CC1(C)CCC(CN2CCN(c3ccc(C(=O)NS(=O)(=O)c4ccc(NCC5CCOCC5)c([N+](=O)[O-])c4)c(Oc4cnc5[nH]ccc5c4)c3)CC2)=C(c2ccc(Cl)cc2)C1
viability, T/C (compound 0.0316 µM): 101% and 99.5%
viability, T/C (compound 0.1 µM): 101% and 94.4%
viability, T/C (compound 0.316 µM): 101% and 110%
viability, T/C (compound 1 µM): 95.4% and 107%
viability, T/C (compound 3.16 µM): 31.8% and 19.4%
viability, T/C (compound 10 µM): 9.13% and 6.87%
IC50 (curve of compound): 2270 nM and 2070 nM

COc1cc(Nc2ncc3c(n2)-c2ccc(Cl)cc2C(c2c(F)cccc2OC)=NC3)ccc1C(=O)O + NC1CCC(NC2CC2c2ccccc2)CC1
IC50 [1]: 33.3 nM
IC50 [2]: 18.1 nM
IC50 [3]: 34.7 nM
IC50 [4]: 20 nM
IC50 [5]: 17.2 nM
viability, T/C (second compound 0.1 µM, first compound 0.00316 µM): 67.7%
viability, T/C (second compound 0.1 µM, first compound 0.01 µM): 59.1%
viability, T/C [26]: 51.7%
viability, T/C [27]: 39.5%
viability, T/C [28]: 31.7%
viability, T/C [29]: 25.7%
viability, T/C (second compound 0.316 µM, first compound 0.00316 µM): 64.9%
viability, T/C (second compound 0.316 µM, first compound 0.01 µM): 52.9%
viability, T/C [32]: 45.6%
viability, T/C [33]: 37.6%
viability, T/C [34]: 35%
viability, T/C [35]: 23.7%
viability, T/C (second compound 1 µM, first compound 0.00316 µM): 62.3%
viability, T/C (second compound 1 µM, first compound 0.01 µM): 57.5%
viability, T/C [38]: 51.8%
viability, T/C [39]: 40%
viability, T/C [40]: 32.3%
viability, T/C [41]: 19.9%
viability, T/C (second compound 3.16 µM, first compound 0.00316 µM): 62.9%
viability, T/C (second compound 3.16 µM, first compound 0.01 µM): 52.1%
viability, T/C [44]: 47.2%
viability, T/C [45]: 41.2%
viability, T/C [46]: 28.6%
viability, T/C [47]: 22.1%
viability, T/C (second compound 10 µM, first compound 0.00316 µM): 60.9%
viability, T/C (second compound 10 µM, first compound 0.01 µM): 52.7%
viability, T/C [50]: 50.3%
viability, T/C [51]: 33.2%
viability, T/C [52]: 31.5%
viability, T/C [53]: 22.5%
